Columns and labels:
APN = assay: Pathway inhibitor screen on PM-induced APN degradation in ST cells (western blot); type: cell-based, porcine; conditions: PM 10 mM, 16 h, 3-MA 20 mM
Method: Fig 6 PM degrades APN by autophagy-lysosome pathway. (A) ST cells were treated with PM (10 mM) and infected with TGEV (0.1 MOI) in the presence and absence of MG132 (20 µM), 3-MA (20 mM), and Z-VAD-FMK (20 µM) for 16 h. The APN expression and TGEV N were detected by western blot. (B) ST cells were treated with PM (10 mM) at 2, 4, 8, and 16 h, autophagy markers P62 and LC3, and APN were measured by western blot. (C) ST cells were transfected with RFP-EGFP-LC3B for 12 h and then treated with PM (10 mM) or H2O for 36 h. The fluorescence of GFP and RFP was detected by confocal microscopy, scale bar: 5 µm. (D) Quantification of autophagosomes (Merge) and autolysosomes (RFP) from C using Image J software. (E) ST cells were treated with PM or H2O for 24 h. The autophagosomes (yellow arrow) and autolysosomes (asterisk) were detected by transmission electron microscope, scale bar: 2 µm. (F) The number of autophagosomes (yellow arrow) and autolysosomes (asterisk) was quantified. All western blot results were calculated by Image J. Results are presented as mean ± SD of data from three independent experiments. ***, P ≤ 0.001.
Fig 7 PM degrades APN expression via activating PIK3C3-mediated autophagy. (A) Graphical representation for autophagy and the targets of different autophagy inhibitors. (B) ST cells were treated with PM (10 mM) in the presence and absence of 3-MA (20 mM), SBI0206965 (20 µM), and 3BDO (30 µM) for 16 h, and the APN expression was detected by western blot. (C) ST cells were treated with PM (10 mM) in the presence and absence of 3-MA (20 mM) for 16 h, and the APN, PIK3C3, ATG14, BECN1, P62, and LC3 were measured by western blot. (D) ST cells were transfected with PIK3C3 siRNA-1, PIK3C3 siRNA-2, PIK3C3 siRNA-3, PIK3C3 siRNA-4, and NC siRNA for 24 h, the PIK3C3 expression was detected by western blot. (E) ST cells were transfected with PIK3C3 siRNA-4 or NC siRNA for 24 h and then treated with PM (10 mM) for 16 h. The APN, PIK3C3, ATG14, BECN1, P62, and LC3 were detected by western blot. (F) Sequencing diagram for WT ST cells and PIK3C3 KO ST cells. (G) PIK3C3 was detected by western blot in WT ST cells and PIK3C3 KO ST cells. (H) WT ST cells and PIK3C3 KO ST cells were treated with PM (10 mM) for 16 h and then the APN, PIK3C3, ATG14, BECN1, P62, and LC3 were detected by western blot. (I) WT ST cells and PIK3C3 KO ST cells were transfected with pCMV-Myc and pCMV-Myc-PIK3C3, respectively, for 24 h and treated with PM (10 mM) for 16 h. The APN, PIK3C3, P62, and LC3 were detected by western blot. All western blot results were calculated by Image J. All experiments were performed in triplicate.

TGEV Miller = assay: TGEV infection of ST cells (RT-qPCR, TCID50, western blot, IFA); type: cell-based, transmissible gastroenteritis virus; conditions: TGEV Miller 0.1 MOI, indicated concentrations, 1 h pretreatment and 17 h
Method: Fig 1 PM inhibits TGEV and PRCV infection in ST cells. (A) A cytotoxicity assay of PM in ST cells. ST cells cultured in a 96-well plate were incubated with different concentrations of PM for 24 h, which was tested by Cell Counting Kit 8. (B) Time course for PM inhibiting TGEV or PRCV or PEDV infection assay. (C–F) The ST cells, pretreated with PM at the indicated concentrations for 1 h were infected with TGEV Miller (0.1 MOI) or PRCV (0.1 MOI) for 1 h and were again treated with PM at 37°C for 17 h. The cell samples were collected and examined by real-time quantitative PCR (RT-qPCR), TCID50, western blot (C and D), and immunofluorescence assay (IFA) (E and F), scale bar: 50 µm. (G) Vero-E6 cells were treated with indicated PM and infected with PEDV LJX 01/2014 according to the time course of Fig. 1B, which was detected by TCID50 and western blot. Results are presented as mean ± SD of data from three independent experiments. ns, no significant; **, P ≤ 0.01; ***, P ≤ 0.001.
Fig 3 PM inhibits TGEV and PRCV infection by potassium ion and molybdate synergy. […] The cell samples were measured by RT-qPCR. (C and D) ST cells were treated with PM (K2MoO4, 10 mM), KCl (20 mM), Na2MoO4 (10 mM), sodium chloride (NaCl, 10 mM), K2MoO4 (10 mM), and NaCl (20 mM) as well as Na2MoO4 (10 mM) and KCl (20 mM) for 1 h and then infected with TGEV Miller (0.1 MOI) or PRCV (0.1 MOI) for 17 h, which was determined by RT-qPCR and TCID50. […]
Total RNA was extracted using RNAiso reagent (TaKaRa, Japan, 9109) and reverse transcribed into cDNA using HiScript Q RT SuperMix for qPCR (Vazyme, China, R223-01), both of which followed the manufacturer’s recommendations. The TGEV and PRCV virus copy numbers were detected by the TaqMan probe-based RT-qPCR method developed previously in our laboratory ([59]). Relative qPCR was also performed using ChamQ SYBR qPCR master mix (Vazyme, China, Q311-02), and the results were calculated via the 2^-ΔΔCT method.

[1] = no virus, SBI0206965 20 µM, 3BDO 30 µM

Question: For Cn1cnc(N)c2ncnc1-2 [3-MA, 3-Methyladenine], which “reversal of PM-induced APN degradation” value (APN; [1]) is on record?
Answer: The value was “reversed the changes in APN expression”.

Question: And the “reversal of PM-induced APN degradation” value (APN; TGEV 0.1 MOI, MG132 20 µM, Z-VAD-FMK 20 µM)?
Answer: Its value is “reversed”.

Question: Which “reversal of PM-induced APN degradation” value (APN; [1]) does the source give for O=C1OC(COc2ccccc2[N+](=O)[O-])CC1Cc1ccccc1 (stereo not drawn) [3BDO] here?
Answer: The value was “cannot abolish the degradation of APN”.

Question: How did the “reversal of PM-induced APN degradation” value (APN; [1]) turn out when CNC(=O)c1ccccc1Oc1nc(Nc2cc(OC)c(OC)c(OC)c2)ncc1Br [SBI0206965] was run?
Answer: The value was “cannot abolish the degradation of APN”.

Question: Which “TGEV infection, single salt” value (TGEV Miller) does the source give for [Cl-].[K+] [potassium chloride] here?
Answer: The value was “neither potassium chloride nor sodium molybdate was able to suppress TGEV infection”.

Question: How did the “TGEV infection, single salt” value (TGEV Miller) turn out when [Na+].[Na+].[O]=[Mo](=[O])([O-])[O-] [sodium molybdate] was run?
Answer: Its value is “neither potassium chloride nor sodium molybdate was able to suppress TGEV infection”.

Source: publication PMC11784013, “Potassium molybdate blocks APN-dependent coronavirus entry by degrading receptor via PIK3C3-mediated autophagy” (Journal of Virology, 2024)
